Tested on: 379773-124-R-J2-PDC spheroid viability
Test: Anticancer human tumor 379773-124-R-J2-PDC patient-derived endometrial carcinoma cell line growth inhibition [POLQ]
Settings: spheroids with HUVEC and MSC; for IC50: curve of first compound; for viability, T/C: stronger effect = lower value
Method: Multicellular complex tumor spheroid response to Polymerase (POL) inhibitors (novobiocin, ART-558, RP6685) in combination with a variety of drugs and investigational agents in selected tumor cell lines
The POL inhibitors (novobiocin, ART-558, and RP6685) were evaluated both individually and in combination with standard of care and investigational anticancer small molecules within a complex spheroid model of solid tumors. . Complex spheroids include a stromal component modeled by human endothelial cells (HUVEC) and fibroblasts modeled by human mesenchymal stem cells (MSCs). The concentration ranges selected for each drug and investigational agent were based upon clinically achievable concentrations if the clinical Cmax of the agent was known.
Compounds. The drugs and investigational agents: novobiocin (NSC847541), ART-558 (NSC835418), RP-6685 (NSC848927), peposertib (NSC802822), ceralasertib (NSC780249), elimusertib (NSC800525), camonsertib (NSC841442), AZD-1390 (NSC803789), olaparib (NSC753686), talazoparib (NSC767125), rucaparib (NSC756644), sotorasib (NSC818433), MRTX-1133 (NSC836407), SN-38 (NSC673596), topotecan (NSC609699), epotoside (NSC141540), doxorubicin (NSC123127), gemcitabine (NSC613327), 5-fluorouracil (NSC19893), paclitaxel (NSC125973), vemurafenib (NSC761431), MSA-2 (NSC828583), SN-011 (NSC837082), adavosertib (NSC754352), prexasertib (NSC758257), carboplatin (NSC241240) and oxaliplatin (NSC266046), were obtained from the National Cancer Institute (NCI) Developmental Therapeutics Program Chemical Repository (21). The FDA-approved anticancer drug set is available from the Developmental Therapeutics Program at https://dtp.cancer.gov/organization/dscb/obtaining/. […] The stock solutions were prepared in dimethyl sulfoxide (DMSO, Sigma-Aldrich, St. Louis, MO, cat. D2650), except for the platinum compounds which were prepared in saline (Quality Biological, Gaithersburg, MD, cat. 114-055-101), at 800-fold the tested concentration and stored at -70 degrees C prior to their use. All drugs and investigational agents were tested over a range starting from a high concentration at or near the clinical Cmax and decreasing in half-log increments. If the clinical Cmax for an agent had not been determined, the highest concentration tested was 10 microM, except for SN-38, which was tested at a high concentration of 1 microM.
Cell Culture. All cells were maintained in an incubator at 37 degrees C and 5% CO2 with 95% humidity. The PDC lines were cultured according to standard operating procedures established by the NCI PDMR (https://pdmr.cancer.gov). Table 3 of the manuscript, lists the cell lines along with the number of the three cell types plated to form the mct-spheroids and media for tumor cell growth. After thawing, all PDC lines, except 997537-175-T-J1-PDC and 415267-285-R-J2-PDC, were cultured in Matrigel-coated flasks prepared with a working solution of 1X Ham's F-12 nutrient mix, without supplementation (Thermo Fisher Scientific, cat. 11765054), 100 U/mL penicillin-streptomycin (Thermo Fisher Scientific, cat. 15140122), and 2.5% Matrigel (Corning Inc., Corning, NY, cat. 354248) for the first three passages. The two PDC lines 997537-175-T-J1-PDC and 415267-285-R-J2-PDC were cultured on uncoated flasks. The 857933-349-R-J2-PDC line was cultured in 6C/Colon 1B media containing advanced DMEM/F-12 (Thermo Fisher Scientific, cat. 12634028), 10 mM HEPES (Thermo Fisher Scientific, cat. 15630080), 1X GlutaMAX supplement (Thermo Fisher Scientific, cat. 35050061), 0.1 mg/mL primocin (InvivoGen, San Diego, CA, cat. ant-pm-2), 10% defined fetal bovine serum, heat inactivated (HyClone Laboratories Inc., Logan, UT, cat. SH30070.03HI), 50% L-WRN conditioned media (ATCC, cat. CRL-3276), 1.25 mM N-Acetyl-L-cysteine (Sigma-Aldrich, cat. A9165), 10 mM nicotinamide (Sigma-Aldrich, cat. N0636), 1X B-27 supplement (Thermo Fisher Scientific, cat. 17504044), 1X N-2 supplement (Thermo Fisher Scientific, cat. […]

[1] = second compound 0.0316 µM, first compound 0.0316 µM
[2] = second compound 0.0316 µM, first compound 0.1 µM
[3] = second compound 0.0316 µM, first compound 0.316 µM
[4] = second compound 0.0316 µM, first compound 1 µM
[5] = second compound 0.1 µM, first compound 0.0316 µM
[6] = second compound 0.1 µM, first compound 0.1 µM
[7] = second compound 0.1 µM, first compound 0.316 µM
[8] = second compound 0.1 µM, first compound 1 µM
[9] = second compound 0.316 µM, first compound 0.0316 µM
[10] = second compound 0.316 µM, first compound 0.1 µM
[11] = second compound 0.316 µM, first compound 0.316 µM
[12] = second compound 0.316 µM, first compound 1 µM
[13] = second compound 1 µM, first compound 0.0316 µM
[14] = second compound 1 µM, first compound 0.1 µM
[15] = second compound 1 µM, first compound 0.316 µM
[16] = second compound 1 µM, first compound 1 µM
[17] = second compound 3.16 µM, first compound 0.0316 µM
[18] = second compound 3.16 µM, first compound 0.1 µM
[19] = second compound 3.16 µM, first compound 0.316 µM
[20] = second compound 3.16 µM, first compound 1 µM
[21] = second compound 10 µM, first compound 0.0316 µM
[22] = second compound 10 µM, first compound 0.1 µM
[23] = second compound 10 µM, first compound 0.316 µM
[24] = second compound 10 µM, first compound 1 µM
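Note: spheroids exposed to drugs for seven days before readout.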
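Throughout, for viability, T/C: percent viability relative to DMSO vehicle control taken as 100%.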

## CCc1c2c(nc3ccc(O)cc13)-c1cc3c(c(=O)n1C2)COC(=O)[C@]3(O)CC + Cc1cccc(N(C)C(=O)C2C(O)CCN2c2nc(C)cc(C(F)(F)F)c2C#N)c1
Second compound 0.0316 µM
  IC50: < 0.00316 µM
Second compound 0.1 µM
  IC50: < 0.00316 µM
Second compound 0.316 µM
  IC50: < 0.00316 µM
Second compound 1 µM
  IC50: < 0.00316 µM
Second compound 3.16 µM
  IC50: < 0.00316 µM
Second compound 10 µM
  IC50: < 0.00316 µM
Second compound 0.0316 µM, first compound 0.00316 µM
  viability, T/C: 42.3%
Second compound 0.0316 µM, first compound 0.01 µM
  viability, T/C: 11.2%
[1]
  viability, T/C: 7.22%
[2]
  viability, T/C: 2.98%
[3]
  viability, T/C: 1.21%
[4]
  viability, T/C: 0.39%
Second compound 0.1 µM, first compound 0.00316 µM
  viability, T/C: 42.5%
Second compound 0.1 µM, first compound 0.01 µM
  viability, T/C: 11.1%
[5]
  viability, T/C: 6.54%
[6]
  viability, T/C: 3.61%
[7]
  viability, T/C: 2%
[8]
  viability, T/C: 1.94%
Second compound 0.316 µM, first compound 0.00316 µM
  viability, T/C: 50%
Second compound 0.316 µM, first compound 0.01 µM
  viability, T/C: 10.5%
[9]
  viability, T/C: 6.39%
[10]
  viability, T/C: 2.26%
[11]
  viability, T/C: 1.38%
[12]
  viability, T/C: 0.58%
Second compound 1 µM, first compound 0.00316 µM
  viability, T/C: 41.5%
Second compound 1 µM, first compound 0.01 µM
  viability, T/C: 12.6%
[13]
  viability, T/C: 7.38%
[14]
  viability, T/C: 2.95%
[15]
  viability, T/C: 2.13%
[16]
  viability, T/C: 0.49%
Second compound 3.16 µM, first compound 0.00316 µM
  viability, T/C: 43.7%
Second compound 3.16 µM, first compound 0.01 µM
  viability, T/C: 14.4%
[17]
  viability, T/C: 7.52%
[18]
  viability, T/C: 3.81%
[19]
  viability, T/C: 1.74%
[20]
  viability, T/C: 0.63%
Second compound 10 µM, first compound 0.00316 µM
  viability, T/C: 30.8%
Second compound 10 µM, first compound 0.01 µM
  viability, T/C: 13.9%
[21]
  viability, T/C: 7.18%
[22]
  viability, T/C: 3.13%
[23]
  viability, T/C: 2.07%
[24]
  viability, T/C: 1.28%

## CNCc1ccc(-c2[nH]c3cc(F)cc4c3c2CCNC4=O)cc1 + Cc1cccc(N(C)C(=O)C2C(O)CCN2c2nc(C)cc(C(F)(F)F)c2C#N)c1
Second compound 0.0316 µM
  IC50: > 10 µM
Second compound 0.1 µM
  IC50: > 10 µM
Second compound 0.316 µM
  IC50: > 10 µM
Second compound 1 µM
  IC50: > 10 µM
Second compound 3.16 µM
  IC50: > 10 µM
Second compound 10 µM
  IC50: > 10 µM
[1]
  viability, T/C: 89.5%
[2]
  viability, T/C: 74.2%
[3]
  viability, T/C: 88.5%
[4]
  viability, T/C: 83.2%
Second compound 0.0316 µM, first compound 3.16 µM
  viability, T/C: 72.7%
Second compound 0.0316 µM, first compound 10 µM
  viability, T/C: 58.3%
[5]
  viability, T/C: 90.4%
[6]
  viability, T/C: 85.8%
[7]
  viability, T/C: 75.2%
[8]
  viability, T/C: 79.5%
Second compound 0.1 µM, first compound 3.16 µM
  viability, T/C: 80.4%
Second compound 0.1 µM, first compound 10 µM
  viability, T/C: 66.9%
[9]
  viability, T/C: 93.3%
[10]
  viability, T/C: 77.5%
[11]
  viability, T/C: 83.1%
[12]
  viability, T/C: 82.9%
Second compound 0.316 µM, first compound 3.16 µM
  viability, T/C: 75.8%
Second compound 0.316 µM, first compound 10 µM
  viability, T/C: 57.6%
[13]
  viability, T/C: 78.2%
[14]
  viability, T/C: 79.7%
[15]
  viability, T/C: 87.1%
[16]
  viability, T/C: 73.5%
Second compound 1 µM, first compound 3.16 µM
  viability, T/C: 73.8%
Second compound 1 µM, first compound 10 µM
  viability, T/C: 60.3%
[17]
  viability, T/C: 86.5%
[18]
  viability, T/C: 73.6%
[19]
  viability, T/C: 79.8%
[20]
  viability, T/C: 83.1%
Second compound 3.16 µM, first compound 3.16 µM
  viability, T/C: 82%
Second compound 3.16 µM, first compound 10 µM
  viability, T/C: 54.8%
[21]
  viability, T/C: 74.8%
[22]
  viability, T/C: 70.3%
[23]
  viability, T/C: 72.7%
[24]
  viability, T/C: 69.6%
Second compound 10 µM, first compound 3.16 µM
  viability, T/C: 77.3%
Second compound 10 µM, first compound 10 µM
  viability, T/C: 61.1%

— PubChem BioAssay AID1963848 (Molecular Pharmacology Branch, DTP, NCI, 2024)
